Assays:
[1] = test system: normal NK cells expanded with K562-aAPC; experiment: percent inhibition of viability; higher = more inhibition; conditions: 72 h, IL-2 2.5 ng/mL
Method: (§1)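 Drug sensitivity and resistance testing on K562-aAPC-expanded normal NK cells: 5 concentrations (10-fold steps over a 10,000-fold range), 72 h at 37 °C, viability by CellTiter-Glo normalised to DMSO and benzethonium chloride controls; DSS from the fitted curve.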

DERL-7 (IL-2 2.5 ng/mL) [2] = experiment: as above; conditions: 72 h
IMC-1 (IL-2 20 ng/mL) [3] = experiment: as above; conditions: 72 h
KAI3 (IL-2 2.5 ng/mL) [4] = experiment: as above; conditions: 72 h
KHYG-1 (IL-2 2.5 ng/mL) [5] = experiment: as above; conditions: 72 h
NK-92 (IL-2 2.5 ng/mL) [6] = experiment: as above; conditions: 72 h
NK-YS (IL-2 2.5 ng/mL) [7] = experiment: as above; conditions: 72 h
NKL (IL-2 2.5 ng/mL) [8] = experiment: as above; conditions: 72 h
SNK-6 (IL-2 2.5 ng/mL) [9] = experiment: as above; conditions: 72 h
YT (IL-2 2.5 ng/mL) [10] = experiment: as above; conditions: 72 h
[11] = test system: normal primary NK cells, pool 1 (3 donors) (IL-2 2.5 ng/mL); experiment: as above; conditions: 72 h
[12] = test system: normal primary NK cells, pool 1 (3 donors), resting (IL-2 0 ng/mL); experiment: as above; conditions: 72 h
[13] = test system: normal primary NK cells, pool 2 (3 donors) (IL-2 2.5 ng/mL); experiment: as above; conditions: 72 h
[14] = test system: normal primary NK cells, pool 3 (3 donors) (IL-2 2.5 ng/mL); experiment: as above; conditions: 72 h
[15] = test system: normal NK cells expanded with K562-aAPC; experiment: drug sensitivity score (DSS) (DSS units); higher = more sensitive; extreme values may be limits of the assay; conditions: 72 h; IL-2 2.5 ng/mL
Method: as §1

DERL-7 (IL-2 2.5 ng/mL) [16] = experiment: as above; conditions: 72 h
IMC-1 (IL-2 20 ng/mL) [17] = experiment: as above; conditions: 72 h
KAI3 (IL-2 2.5 ng/mL) [18] = experiment: as above; conditions: 72 h
KHYG-1 (IL-2 2.5 ng/mL) [19] = experiment: as above; conditions: 72 h
NK-92 (IL-2 2.5 ng/mL) [20] = experiment: as above; conditions: 72 h
NK-YS (IL-2 2.5 ng/mL) [21] = experiment: as above; conditions: 72 h
NKL (IL-2 2.5 ng/mL) [22] = experiment: as above; conditions: 72 h
SNK-6 (IL-2 2.5 ng/mL) [23] = experiment: as above; conditions: 72 h
YT (IL-2 2.5 ng/mL) [24] = experiment: as above; conditions: 72 h
[25] = test system: normal primary NK cells, pool 1 (3 donors) (IL-2 2.5 ng/mL); experiment: as above; conditions: 72 h
[26] = test system: normal primary NK cells, pool 1 (3 donors), resting (IL-2 0 ng/mL); experiment: as above; conditions: 72 h
[27] = test system: normal primary NK cells, pool 2 (3 donors) (IL-2 2.5 ng/mL); experiment: as above; conditions: 72 h
[28] = test system: normal primary NK cells, pool 3 (3 donors) (IL-2 2.5 ng/mL); experiment: as above; conditions: 72 h

CC(C)(C#N)c1cc(Cn2cncn2)cc(C(C)(C)C#N)c1 [Anastrozole] (max concentration tested 10000 nM)
percent inhibition of viability [%]
Conditions	1 nM	10 nM	100 nM	1000 nM	10000 nM
DERL-7 (IL-2 2.5 ng/mL) [2]	1.86	1.72	1.5	4.62	1.85
IMC-1 (IL-2 20 ng/mL) [3]	-2.19	-4.02	-0.27	-6.87	-2.18
KAI3 (IL-2 2.5 ng/mL) [4]	4.34	-3.23	4.57	-3.97	4.8
KHYG-1 (IL-2 2.5 ng/mL) [5]	-3.64	-8.98	-2.57	-9.89	-0.45
NK-92 (IL-2 2.5 ng/mL) [6]	2.62	-14.9	-4.14	-11.2	0.08
NK-YS (IL-2 2.5 ng/mL) [7]	-0.21	-1.51	-0.63	-2.69	-1.18
NKL (IL-2 2.5 ng/mL) [8]	-3.4	-8.92	1.02	-7.99	1.34
SNK-6 (IL-2 2.5 ng/mL) [9]	-1.06	23.5	22.5	-18.6	2.15
YT (IL-2 2.5 ng/mL) [10]	6.09	-6.8	6.6	-5.12	8.27
[1]	-3.07	-7.42	-9.56	-10	-14.1
[11]	-5.66	-8.98	-13.5	1.93	-12.4
[12]	0.43	-12.5	-9.34	-4.56	1.51
[13]	-14.1	-1.97	-6.31	-1.14	-6.99
[14]	-11.2	-0.62	-6.71	-6.71	-5.25

Conditions	drug sensitivity score
DERL-7 (IL-2 2.5 ng/mL) [16]	0
IMC-1 (IL-2 20 ng/mL) [17]	0
KAI3 (IL-2 2.5 ng/mL) [18]	0
KHYG-1 (IL-2 2.5 ng/mL) [19]	0
NK-92 (IL-2 2.5 ng/mL) [20]	0
NK-YS (IL-2 2.5 ng/mL) [21]	0
NKL (IL-2 2.5 ng/mL) [22]	0
SNK-6 (IL-2 2.5 ng/mL) [23]	0
YT (IL-2 2.5 ng/mL) [24]	0
[15]	0
[25]	0
[26]	0
[27]	0
[28]	0

O=C1c2c(O)ccc(O)c2C(=O)c2c(NCCNCCO)ccc(NCCNCCO)c21 [Mitoxantrone] (max concentration tested 1000 nM)
percent inhibition of viability [%]
Conditions	0.1 nM	1 nM	10 nM	100 nM	1000 nM
DERL-7 (IL-2 2.5 ng/mL) [2]	-0.69	-3.99	7.25	45.4	81.1
IMC-1 (IL-2 20 ng/mL) [3]	-4.49	-5.12	2.6	19.3	92.1
KAI3 (IL-2 2.5 ng/mL) [4]	-18.6	-16.5	-1.68	41.7	74.6
KHYG-1 (IL-2 2.5 ng/mL) [5]	-1.32	3.99	7.39	17.7	72.5
NK-92 (IL-2 2.5 ng/mL) [6]	-10.5	-26.1	-3.86	11.4	45.4
NK-YS (IL-2 2.5 ng/mL) [7]	-6.35	-2.16	9.79	37.1	85.1
NKL (IL-2 2.5 ng/mL) [8]	-8.85	3.32	12	87	107
SNK-6 (IL-2 2.5 ng/mL) [9]	15	22.1	31.1	20.5	73.1
YT (IL-2 2.5 ng/mL) [10]	-1.6	4.64	3.75	-0.47	32.4
[1]	1.76	1.15	1.38	19	62
[11]	1.11	-8.14	0.77	-0.51	58.9
[12]	-14	-28.2	-16.5	24.1	91.4
[13]	-14.3	-3.15	3.94	9.38	53.6
[14]	-18.6	-1.63	-2.35	-0.69	45.1

Conditions	drug sensitivity score
DERL-7 (IL-2 2.5 ng/mL) [16]	10
IMC-1 (IL-2 20 ng/mL) [17]	8.2
KAI3 (IL-2 2.5 ng/mL) [18]	9.23
KHYG-1 (IL-2 2.5 ng/mL) [19]	6.72
NK-92 (IL-2 2.5 ng/mL) [20]	4.12
NK-YS (IL-2 2.5 ng/mL) [21]	8.97
NKL (IL-2 2.5 ng/mL) [22]	17.5
SNK-6 (IL-2 2.5 ng/mL) [23]	12.2
YT (IL-2 2.5 ng/mL) [24]	1.43
[15]	6.19
[25]	3.14
[26]	8.71
[27]	4.44
[28]	2.25
